Laboratory results: ChEMBL document CHEMBL3112481, “Synthesis, nitric oxide release, and α-glucosidase inhibition of nitric oxide donating apigenin and chrysin derivatives” (Bioorg Med Chem, 2014)

How the values were obtained:
[1] = Inhibition of alpha-glucosidase (unknown origin) assessed as hydrolysis of pNP-alpha-Glu into pNP measured for 10 mins by spectrophotometric analysis; design: species or system Homo sapiens
[2] = Induction of nitric oxide release at 10^-4 M after 1 hr by Griess assay in presence of L-cysteine relative to control; format: physicochemical; conditions: 100 µM
Homo sapiens = organism: Homo sapiens; experiment: Potency index, ratio of apigenin IC50 to compound IC50 for alpha-glucosidase (unknown origin)

O=C(COc1cc(O)c2c(=O)cc(-c3ccccc3)oc2c1)OCCO[N+](=O)[O-]
IC50 [1]: 24 µM

O=c1cc(-c2ccc(OCCCCCCO[N+](=O)[O-])cc2)oc2cc(OCCCCCCO[N+](=O)[O-])cc(O)c12
IC50 [1]: 4.59 µM
Activity [2]: 0.49%

OC[C@H]1NC[C@H](O)[C@@H](O)[C@@H]1O [DUVOGLUSTAT]
IC50 [1]: 227 µM

O=C(COc1ccc(-c2cc(=O)c3c(O)cc(OCC(=O)OCCO[N+](=O)[O-])cc3o2)cc1)OCCO[N+](=O)[O-]
IC50 [1]: 3.71 µM
Activity [2]: 1.237%

O=c1cc(-c2ccc(O)cc2)oc2cc(O)cc(O)c12 [APIGENIN]
IC50 [1]: 16.8 µM

O=c1cc(-c2ccccc2)oc2cc(OCCCCCCO[N+](=O)[O-])cc(O)c12
IC50 [1]: 21 µM

O=C(COc1ccc(-c2cc(=O)c3c(O)cc(OCC(=O)OCCCCCCO[N+](=O)[O-])cc3o2)cc1)OCCCCCCO[N+](=O)[O-]
IC50 [1]: 2.57 µM
Activity [2]: 1.147%

O=c1cc(-c2ccccc2)oc2cc(O)cc(O)c12 [CHRYSIN]
IC50 [1]: 77.7 µM

O=c1cc(-c2ccc(OCCCCO[N+](=O)[O-])cc2)oc2cc(OCCCCO[N+](=O)[O-])cc(O)c12
IC50 [1]: 5.04 µM
Activity [2]: 0.24%

CC(=O)Oc1cc(OCCCCCCO[N+](=O)[O-])cc2oc(-c3ccccc3)cc(=O)c12
IC50 [1]: > 100 µM

O=c1cc(-c2ccc(OCCO[N+](=O)[O-])cc2)oc2cc(OCCO[N+](=O)[O-])cc(O)c12
IC50 [1]: 7.78 µM
Activity [2]: 0.3%

O=[N+]([O-])OCC(CO[N+](=O)[O-])O[N+](=O)[O-] [NITROGLYCERIN]
IC50 [1]: > 180 µM
Activity [2]: 5.14%

CC(=O)Oc1cc(OCCCCO[N+](=O)[O-])cc2oc(-c3ccccc3)cc(=O)c12
IC50 [1]: > 100 µM

O=C(COc1ccc(-c2cc(=O)c3c(O)cc(OCC(=O)OCCCCO[N+](=O)[O-])cc3o2)cc1)OCCCCO[N+](=O)[O-]
Ratio IC50 (Homo sapiens): 7.2
IC50 [1]: 2.33 µM
Activity [2]: 1.757%

CC(=O)Oc1cc(OCCO[N+](=O)[O-])cc2oc(-c3ccccc3)cc(=O)c12
IC50 [1]: > 100 µM

O=c1cc(-c2ccccc2)oc2cc(OCCO[N+](=O)[O-])cc(O)c12
IC50 [1]: 30 µM

O=C(COc1cc(O)c2c(=O)cc(-c3ccccc3)oc2c1)OCCCCCCO[N+](=O)[O-]
IC50 [1]: 3.39 µM

O=c1cc(-c2ccccc2)oc2cc(OCCCCO[N+](=O)[O-])cc(O)c12
IC50 [1]: 18.7 µM

C[C@H]1O[C@H](O[C@H]2[C@H](O)[C@@H](O)[C@@H](O[C@H]3[C@H](O)[C@@H](O)C(O)O[C@@H]3CO)O[C@@H]2CO)[C@H](O)[C@@H](O)[C@@H]1N[C@H]1C=C(CO)[C@@H](O)[C@H](O)[C@H]1O (stereo partly drawn) [ACARBOSE]
IC50 [1]: 564 µM

O=C(COc1cc(O)c2c(=O)cc(-c3ccccc3)oc2c1)OCCCCO[N+](=O)[O-]
IC50 [1]: 14.1 µM
